In a melting point compilation (Tetko et al.; mined from patent text by program, amines drawn as free bases though some values may be those of a salt) one finds melting point data, which are given here for 65 molecules.

The structures appear in SMILES notation.

Molecule `C[C@H](COS(C)(=O)=O)NC(=O)OC(C)(C)C` showed a melting point of 65 to 68 °C.
The molecule `CCN(CC)c1ccc(C2(N(c3ccccc3)c3ccccc3)OC(=O)c3nccnc32)cc1` (stereo not given) returned a melting point of 140 to 143 °C.
`O=Cc1ccc2c(c1)S(=O)(=O)c1ccccc1C=C2` returned a melting point of 167 to 171 °C.
`COc1ccc(C(=O)Nc2ccccc2C(O)Cc2ccccn2)cc1` (stereo not given) displayed a melting point of 127 to 128 °C.
For `CCCn1c(=O)c2c(nc(/C=C/c3cc(OC(C)=O)cc(OC(C)=O)c3)n2C)n(CCC)c1=O`, the melting point fell in the range of 224 to 225 °C.
Turning to `Oc1ccccc1CNc1cncc(Br)c1`, the melting point stood at 184 °C.
`C=CC(=O)N1CC(O)CC1C(=O)OC` (stereo not given) displayed a melting point of 77 to 78 °C.
Consider `Cc1oc(-c2ccccc2)nc1COc1ccc(CCl)cn1`, for which the melting point lay in the range of 86 to 87 °C.
The molecule `CCC(=O)Oc1cc(OC)cc(OC)c1C(=O)C=Cc1ccc(C)cc1` came in with a melting point of 156 °C.
Consider `CC(C)(C)OC(=O)C1C=CCn2c(=O)n(CCCl)c(=O)n21` (stereo not given), for which the melting point is 87 to 88 °C.
`N#Cc1cc(Cc2ccc(F)cc2)ccc1N` registered a melting point of 105 to 107 °C.
The figure for `CCc1c2nc(-c3cc(S(C)(=O)=O)ccc3OCC(C)C)[nH]c(=O)c2nn1C1CCNCC1` is 263 to 265 °C.
Consider `COC(=O)C1CCCCCCCSC[C@@H](C(=O)OC)NC1=O` (stereo not given in full), for which the melting point lay within 156 to 164 °C.
The figure for `COc1c(C)c(C)c(OC)c(N)c1N` is 107 to 110 °C; for `CN(C)CCC1(c2ccccc2)Cc2ccccc2C(=O)O1` (stereo not given) it is 95 to 95.5 °C.
The molecule `Fc1ccc2c(C3CCN(CC4=Cc5cc6c(cc54)OCO6)CC3)noc2c1` came in with a melting point of 125 to 126 °C.
The molecule `Cc1ncsc1C(O)c1cccc(O)c1` (stereo not given) yielded a melting point of 181 to 184 °C.
On to `CCOc1ccc(-c2nc(OC(C)=O)c(-c3ccccc3)s2)cc1`, for which the melting point is 149 to 150 °C.
The molecule `CCCCCC1CCc2c(c(F)c(F)c3oc(C)cc23)O1` (stereo not given) gave a melting point of 61 °C.
The value for `CCCCCCCCOC(=O)C(=C1SCCS1)c1cccc(C(F)(F)F)c1` was 42 to 43 °C.
The value for `CSc1nc(O)c(C=O)c(O)n1` was more than 250 °C; that for `COC(=O)c1ccc([N+](=O)[O-])c(OCC(N)=O)c1` was 138 to 139 °C.
`CCn1c(=O)c(-n2c(C(N)=O)nnc2-c2ccc(C#N)cc2)c(C)n(-c2cccc(C(F)(F)F)c2)c1=O`: the melting point amounted to 256 °C.
The value for `O=c1[nH]nccc1-c1ccccc1` was 216 to 219 °C; that for `CCCCCNS(=O)(=O)NC(=O)OCc1ccc(OCCOC)cc1Oc1ncc(C(F)(F)F)cc1Cl` was 153 to 155 °C.
As for `CCCc1nc2c(N)nc(C)c(C)c2n1CC1(O)CCC1`, the melting point lay within 180 to 181 °C.
Turning to `CCNC1=NS(=O)(=O)c2cc(Cl)sc2N1`, the melting point lay within 274 to 275 °C.
The molecule `CCOC(Cc1ccc(OCCN2c3ccccc3Oc3ccccc32)cc1)C(=O)OC` (stereo not given) had a melting point of 88 to 90 °C.
With `COc1cc(Nc2ncc(N)c(-c3ccccc3)n2)cc(OC)c1OC`, the melting point is 149 to 150 °C.
The figure for `O=C(NC1CCN(C/C=C\CC(c2ccccc2)c2ccccc2)CC1)c1ccccc1Oc1ccccc1` is 91 to 94 °C; for `O=C(c1cccc(Cl)c1)N1CCCN(CC2=Nc3cccc4c(=O)[nH]nc(c34)N2)CC1` it is 147 to 149 °C.
Turning to `CC(C)(C)CN1C(=O)C(=O)N(c2ccc(C#N)cc2)C1=S`, the melting point fell in the range of 128 to 129 °C.
`COc1ccc(C=C2c3ccccc3C(=O)c3ccccc32)cc1OCC(=O)O` yielded a melting point of 227 to 230 °C.
`COC(=O)c1ccc(C(=O)O)cc1C` gave a melting point of 134 to 136 °C.
Molecule `COc1ccc(C2CC(=O)CC(c3ccc(OC)cc3)N2C)cc1` (stereo not given) registered a melting point of 129 to 130 °C.
`CCOC(=O)CCCOc1ccc2c(c1)CN1CC(=O)NC1=N2`: the melting point was 243 to 244 °C.
In the case of `CCOC(=O)c1cn(CCc2ccc(O)cc2)c2cc(C3CC3)nn2c1=O`, the melting point fell in the range of 95 to 100 °C.
Regarding `CN(C)c1ccc([N+](=O)[O-])c(C(=O)O)c1`, the melting point was 185 to 187 °C.
For `CCOc1c(OC)cc(C(=O)N2CCN(C(=O)C3=Cc4cc(OC)c(OC)cc4CCC3)CC2)cc1OC`, the melting point fell in the range of 171 to 172 °C.
Consider `CC(C)(C)OC(=O)Oc1ccc(C(C(=O)OC(c2ccccc2)c2ccccc2)N2CC(NC(=O)OCc3ccccc3)C2=O)cc1` (stereo not given), for which the melting point lay within 153 to 154 °C.
On to `CC(=O)[C@@H]1CC(=S)N(C(C)=O)C1`, for which the melting point lay within 49 to 51 °C.
The value for `C=CCn1c(NCCCOc2ccccc2)nc(N2CCc3ccccc3CC2)c(C#N)c1=O` was 157 to 159 °C.
The molecule `CC(C)(C)C(Nc1c(Nc2cccnc2)c(=O)c1=O)C(Oc1ccccc1)C(N)=O` (stereo not given) showed a melting point of 227 to 228 °C.
The figure for `O=Cc1cc(Br)c(OCCBr)c(Br)c1` is 84 to 85 °C; for `COc1cc(I)c(C(C)=O)cc1O` it is 109 to 111 °C; for `CCN(CC)CCOCCc1ccc2sc(C(N)=O)cc2c1` it is 82 to 84 °C.
On to `OCCOCC(O)c1ccc2sccc2c1` (stereo not given), for which the melting point was 119 to 120 °C.
For `Cn1c(=O)c2c(ncn2Cc2noc(CCO)n2)n(C)c1=O`, the melting point came out at 145 °C.
In turn, `COc1ccc(OCCO)c(C=O)c1` came in with a melting point of 68 to 72 °C.
`CC1c2ccccc2-c2ccccc2N1S(=O)(=O)c1ccc(O)cc1` (stereo not given) yielded a melting point of 196 to 198 °C.
The value for `CC(C)C(NC(=O)c1ccccc1SSc1ccccc1C(=O)NC(C(=O)O)C(C)C)C(=O)O` (stereo not given) was 226 to 228 °C; that for `CCOC(=O)c1c(-c2ccc(F)cc2)nc(-c2ccccc2)nc1C(C)C` was 97 to 99 °C; that for `CCCc1c2c(cc3c(=O)cc(C(=O)OCC)oc13)CCCC2` was 98 to 99.5 °C.
Molecule `COc1cc(OC)cc(S(=O)(=O)n2c(CCCC(=O)O)cc3nc(Cl)ccc32)c1` registered a melting point of 136 to 138 °C.
Molecule `COC1=CC(=O)c2c(c(COc3cc(C=Cc4cc(OC)c(OC)c(OC)c4)ccc3OC)c(C)n2C)C1=O` returned a melting point of 192 to 194 °C.
In turn, `CC(=N)NS(=O)(=O)C=Cc1ccc(Cl)c(Cl)c1` yielded a melting point of 198 °C.
`CCNc1nc(Cl)nc(Nc2ccc(OC)cc2)n1` showed a melting point of 174 to 176 °C.
In the case of `CN1CCN(c2ncccc2OC2CCN(c3ccc(Br)cc3)C2=O)CC1` (stereo not given), the melting point fell in the range of 72 to 82 °C.
`COc1ccccc1CC(=O)N1C[C@@H]2C(=O)CCC(c3ccccc3)(c3ccccc3)[C@@H]2C1` (racemic) gave a melting point of 163 °C.
The value for `CCN(c1ccc(N2CCN(c3ccc(OC)cc3)CC2)cc1)c1nc(-c2ccccc2)cs1` was 224 °C; that for `O=C(O)c1cc2ccccc2cc1NC(=O)C(CS)Cc1ccccc1` (stereo not given) was 180 to 182 °C.
As for `C#Cc1cc(Nc2ncnc3cnc(NC(=O)CP(=O)(OCC)OCC)cc23)ccc1Cl`, the melting point was 124 to 127 °C.
`Clc1ccc(C2(Cn3cncn3)CC(Cl)CO2)c(Cl)c1` (stereo not given) returned a melting point of 97 °C.
With `Cn1cc(C(=O)O)c(=O)c2cc3cc(F)c(N4CCNC(c5cccc(F)c5)C4)cc3nc21` (racemic), the melting point came out at 254 °C.
Take `COC(=O)Cc1nc(-c2ccc(Cl)cc2)oc1-c1ccsc1`: the melting point fell in the range of 127 to 128 °C.

In general, melting point refers to the temperature, or range, at which the solid turns liquid.
